Measured values: US20130345419A1, “AZOLE DERIVATIVE” (TAISHO PHARMACEUTICAL CO., LTD., priority 2011, published 2013)

The molecules below were run against T1, human recombinant FKBP12 (Homo sapiens, UniProt P62942) (assay: Test 1: immunophilin FKBP12 rotamase (peptidylprolyl isomerase) inhibiting activity). Conditions: 12 nM human recombinant FKBP12, substrate succinyl-Ala-Phe-Pro-Phe-paranitroanilide 48 μM, 4° C.; read-out: PKBP12 rotamase inhibiting activity IC50.
T1 construct: purchased Sigma F-5398
T1 sequence (P62942 whole entry): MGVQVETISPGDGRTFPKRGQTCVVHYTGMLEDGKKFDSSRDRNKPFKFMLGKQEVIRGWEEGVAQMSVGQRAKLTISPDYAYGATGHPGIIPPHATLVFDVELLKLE
Type: biochemical
Experimental: (Test 1) Test for Measuring Immunophilin FKBP12 Rotamase Activity
The rotamase (peptidylprolyl isomerase) inhibiting activity of each test compound was measured by a known method (Harding et al., Nature 341, 758-760, 1989; Holts et al., J. Am. Chem. Soc. 115, 9925-9938, 1993.) To be more specific, a plastic cuvette was charged with 35 mM HEPES (pH 7.8), 12 nM human recombinant FKBP12 (Sigma, F-5398), 0.4 mg/mL α-chymotrypsin, and a test compound dissolved in DMSO at varying concentrations (DMSO's final concentration was 0.1%.) Subsequently, 24 mM of the substrate peptide, succinyl-Ala-Phe-Pro-Phe-paranitroanilide, as dissolved in trifluoroethanol containing 500 mM of LiCl was added to give a final concentration of 48 μM, whereupon reaction started. The reaction was carried out at 4° C. and the change in absorbance at 390 nm accompanying the liberation of the paranitroaniline product was monitored. A calculated initial rate minus the corresponding value in the absence of the enzyme was used as an index of rotamase activity. The rotamase inhibiting activity of a test compound was expressed in relative values (%) with respect to the control value of rotamase activity in the absence of the compound, and the concentration of the compound at which it was capable of inhibiting rotamase activity by 50% was calculated as an IC50 value from its concentration response curve.
With `COc1ccc(OCc2nnc([C@@H]3CCCN3C(=O)C(F)(F)C3(O)CC(C)(C)CC(C)(C)C3)o2)cc1OC` [Compound 2, (S)-1-(2-(5-((3,4-Dimethoxyphenoxy)methyl)-1,3,4-oxadiazol-2-yl)pyrrolidin-1-yl)-2,2-difluoro-2-(1-hydroxy-3,3,5,5-tetramethylcyclohexyl)ethanone] the IC50 was 62 nM.
Work on `COc1ccc(OCc2noc([C@@H]3CCCN3C(=O)C(F)(F)C3(O)CC(C)(C)CC(C)(C)C3)n2)cc1OC` [Compound 3, (S)-1-(2-(3-((3,4-Dimethoxyphenoxy)methyl)-1,2,4-oxadiazol-5-yl)pyrrolidin-1-yl)-2,2-difluoro-2-(1-hydroxy-3,3,5,5-tetramethylcyclohexyl)ethanone] yielded an IC50 of 500 to 1000 nM.
`COc1ccc(OCc2nnc([C@@H]3CCCN3C(=O)C(F)(F)C3(O)CC(C)(C)CC(C)(C)C3)s2)cc1OC` [Compound 4, (S)-1-(2-(5-((3,4-Dimethoxyphenoxy)methyl)-1,3,4-thiadiazol-2-yl)pyrrolidin-1-yl)-2,2-difluoro-2-(1-hydroxy-3,3,5,5-tetramethylcyclohexyl)ethanone] was tested, and the IC50 was 145 nM.
`COc1ccc(OCc2nc([C@@H]3CCCN3C(=O)C(F)(F)C3(O)CC(C)(C)CC(C)(C)C3)n[nH]2)cc1OC` [Compound 5, (S)-1-(2-(5-((3,4-Dimethoxyphenoxy)methyl)-4H-1,2,4-triazol-3-yl)pyrrolidin-1-yl)-2,2-difluoro-2-(1-hydroxy-3,3,5,5-tetramethylcyclohexyl)ethanone] showed an IC50 of 119 nM.
In the case of `COc1ccc(OCc2cnc([C@@H]3CCCN3C(=O)C(F)(F)C3(O)CC(C)(C)CC(C)(C)C3)o2)cc1OC` [Compound 6, (S)-1-(2-(5-((3,4-Dimethoxyphenoxy)methyl)oxazol-2-yl)pyrrolidin-1-yl)-2,2-difluoro-2-(1-hydroxy-3,3,5,5-tetramethylcyclohexyl)ethanone], the IC50 is reported as 500 to 1000 nM.
`COc1ccc(OCc2cnc([C@@H]3CCCN3C(=O)C(F)(F)C3(O)CC(C)(C)CC(C)(C)C3)s2)cc1OC` [Compound 7, (S)-1-(2-(5-((3,4-Dimethoxyphenoxy)methyl)thiazol-2-yl)pyrrolidin-1-yl)-2,2-difluoro-2-(1-hydroxy-3,3,5,5-tetramethylcyclohexyl)ethanone] gave an IC50 of 500 to 1000 nM.
`COc1ccc(OCc2nc([C@@H]3CCCN3C(=O)C(F)(F)C3(O)CC(C)(C)CC(C)(C)C3)nn2C)cc1OC` [Compound 8, (S)-1-(2-(5-((3,4-Dimethoxyphenoxy)methyl)-1-methyl-1H-1,2,4-triazol-3-yl)pyrrolidin-1-yl)-2,2-difluoro-2-(1-hydroxy-3,3,5,5-tetramethylcyclohexyl)ethanone] gave an IC50 of 189 nM.
Work on `COc1ccc(OCc2cc([C@@H]3CCCN3C(=O)C(F)(F)C3(O)CC(C)(C)CC(C)(C)C3)nn2C)cc1OC` [Compound 9, (S)-1-(2-(5-((3,4-Dimethoxyphenoxy)methyl)-1-methyl-1H-pyrazol-3-yl)pyrrolidin-1-yl)-2,2-difluoro-2-(1-hydroxy-3,3,5,5-tetramethylcyclohexyl)ethanone] yielded an IC50 of 500 to 1000 nM.
With `COc1ccc(OCc2cc([C@@H]3CCCN3C(=O)C(F)(F)C3(O)CC(C)(C)CC(C)(C)C3)on2)cc1OC` [Compound 10, (S)-1-(2-(3-((3,4-Dimethoxyphenoxy)methyl)isoxazol-5-yl)pyrrolidin-1-yl)-2,2-difluoro-2-(1-hydroxy-3,3,5,5-tetramethylcyclohexyl)ethanone] the IC50 was 500 to 1000 nM.
For `COc1ccc(OCc2cc([C@@H]3CCCN3C(=O)C(F)(F)C3(O)CC(C)(C)CC(C)(C)C3)n[nH]2)cc1OC` [Compound 11, (S)-1-(2-(5-((3,4-Dimethoxyphenoxy)methyl)-1H-pyrazol-3-yl)pyrrolidin-1-yl)-2,2-difluoro-2-(1-hydroxy-3,3,5,5-tetramethylcyclohexyl)ethanone], the IC50 was 235 nM.
Work on `COc1ccc(CCc2nnc([C@@H]3CCCN3C(=O)C(F)(F)C3(O)CC(C)(C)CC(C)(C)C3)o2)cc1OC` [Compound 12] yielded an IC50 of 270 nM.
For `COc1ccc(-c2nnc([C@@H]3CCCN3C(=O)C(F)(F)C3(O)CC(C)(C)CC(C)(C)C3)o2)cc1OC` [Compound 13], the IC50 was 434 nM.
Work on `COc1ccc(CCCc2nnc([C@@H]3CCCN3C(=O)C(F)(F)C3(O)CC(C)(C)CC(C)(C)C3)o2)cc1OC` [Compound 14] yielded an IC50 of 500 to 1000 nM.
`COc1ccc(Cc2nnc([C@@H]3CCCN3C(=O)C(F)(F)C3(O)CC(C)(C)CC(C)(C)C3)o2)cc1OC` [Compound 16] gave an IC50 of 142 nM.
With `CC1(C)CC(C)(C)CC(O)(C(F)(F)C(=O)N2CCC[C@H]2c2nnc(COc3cccnc3)o2)C1` [Compound 17] the IC50 was 356 nM.
`CC1(C)CC(C)(C)CC(O)(C(F)(F)C(=O)N2CCC[C@H]2c2cc(CO)on2)C1` [Compound 18, (S)-2,2-Difluoro-2-(1-hydroxy-3,3,5,5-tetramethylcyclohexyl)-1-(2-(5-(hydroxymethyl)isoxazol-3-yl)pyrrolidin-1-yl)ethanone] showed an IC50 of 500 to 1000 nM.
With `CC1(C)CC(C)(C)CC(O)(C(F)(F)C(=O)N2CCC[C@H]2c2nnc(COc3ccc(CO)cc3)o2)C1` [Compound 19] the IC50 was 229 nM.
In the case of `COc1cc(OCc2nnc([C@@H]3CCCN3C(=O)C(F)(F)C3(O)CC(C)(C)CC(C)(C)C3)o2)cc(OC)c1OC` [Compound 20], the IC50 is reported as 276 nM.
Molecule `COc1cc(OCc2cc([C@@H]3CCCN3C(=O)C(F)(F)C3(O)CC(C)(C)CC(C)(C)C3)no2)cc(OC)c1OC` [Compound 21, (S)-2,2-Difluoro-2-(1-hydroxy-3,3,5,5-tetramethylcyclohexyl)-1-(2-(5-((3,4,5-trimethoxyphenoxy)methyl)isoxazol-3-yl)pyrrolidin-1-yl)ethanone] has an IC50 of 64 nM.
`CC1(C)CC(C)(C)CC(O)(C(F)(F)C(=O)N2CCC[C@H]2c2nnc(CO)o2)C1` [Compound 22, (S)-2,2-Difluoro-2-(1-hydroxy-3,3,5,5-tetramethylcyclohexyl)-1-(2-(5-(hydroxymethy)-1,3,4-oxadiazol-2-yl)pyrrolidin-1-yl)ethanone] was tested, and the IC50 was 1000 to 2000 nM.
`CC1(C)CC(C)(C)CC(O)(C(F)(F)C(=O)N2CCC[C@H]2c2nnc(COS(C)(=O)=O)o2)C1` [Compound 23, (S)-(5-(1-(2,2-Difluoro-2-(1-hydroxy-3,3,5,5-tetramethylcyclohexyl)acetyl)pyrrolidin-2-yl)-1,3,4-oxadiazol-2-yl)methyl methanesulfonate] was tested, and the IC50 was 1000 to 2000 nM.
`COc1ccc(OCc2nnc([C@@H]3CCCN3C(=O)C(F)(F)C3(O)CC(C)(C)CC(C)(C)C3)o2)cc1` [Compound 24] gave an IC50 of 218 nM.
In the case of `COc1ccccc1OCc1nnc([C@@H]2CCCN2C(=O)C(F)(F)C2(O)CC(C)(C)CC(C)(C)C2)o1` [Compound 25], the IC50 is reported as 401 nM.
`COc1cccc(OCc2nnc([C@@H]3CCCN3C(=O)C(F)(F)C3(O)CC(C)(C)CC(C)(C)C3)o2)c1` [Compound 26] was tested, and the IC50 was 500 to 1000 nM.
`Cc1nnc([C@@H]2CCCN2C(=O)C(F)(F)C2(O)CC(C)(C)CC(C)(C)C2)o1` [Compound 27] gave an IC50 of 500 to 1000 nM.
`COc1ccc(Oc2nnc([C@@H]3CCCN3C(=O)C(F)(F)C3(O)CC(C)(C)CC(C)(C)C3)o2)cc1OC` [Compound 28] was tested, and the IC50 was 351 nM.
Work on `CC1(C)CC(C)(C)CC(O)(C(F)(F)C(=O)N2CCC[C@H]2c2nnc(COc3ccccc3)o2)C1` [Compound 29, (S)-2,2-Difluoro-2-(1-hydroxy-3,3,5,5-tetramethylcyclohexyl)-1-(2-(5-(phenoxymethyl)-1,3,4-oxadiazol-2-yl)pyrrolidin-1-yl)ethanone] yielded an IC50 of 62 nM.
With `COc1ccc(OCc2nnc([C@@H]3CCCN3C(=O)C(F)(F)C3(O)CC(C)(C)CC(C)(C)C3)o2)c(OC)c1` [Compound 30] the IC50 was 220 nM.
`COc1ccc(OCc2nnc([C@@H]3CCCN3C(=O)C(F)(F)C3(O)CC(C)(C)CC(C)(C)C3)o2)cn1` [Compound 31] showed an IC50 of 389 nM.
With `CC1(C)CC(C)(C)CC(O)(C(F)(F)C(=O)N2CCC[C@H]2c2nnc(COc3ccc4c(c3)OCO4)o2)C1` [Compound 32] the IC50 was 165 nM.
In the case of `CC1(C)CC(C)(C)CC(O)(C(F)(F)C(=O)N2CCC[C@H]2c2nnc(COc3ccc4cc[nH]c4c3)o2)C1` [Compound 33], the IC50 is reported as 259 nM.
Work on `CC1(C)CC(C)(C)CC(O)(C(F)(F)C(=O)N2CCC[C@H]2c2nnc(Cc3cccnc3)o2)C1` [Compound 34] yielded an IC50 of 500 to 1000 nM.
With `CC1(C)CC(C)(C)CC(O)(C(F)(F)C(=O)N2CCC[C@H]2c2cc(CCc3cccnc3)on2)C1` [Compound 35] the IC50 was 45 nM.
With `CC1(C)CC(C)(C)CC(O)(C(F)(F)C(=O)N2CCC[C@H]2c2nnc(COc3cncnc3)o2)C1` [Compound 36] the IC50 was 1000 to 2000 nM.
Work on `CC1(C)CC(C)(C)CC(O)(C(F)(F)C(=O)N2CCC[C@H]2c2nnc(CN)o2)C1` [Compound 37] yielded an IC50 of 1000 to 2000 nM.
In the case of `CC1(C)CC(C)(C)CC(O)(C(F)(F)C(=O)N2CCC[C@H]2c2nnc(CNC(=O)c3ccccc3)o2)C1` [Compound 38, (S)—N-((5-(1-(2,2-Difluoro-2-(1-hydroxy-3,3,5,5-tetramethylcyclohexyl)acetyl)pyrrolidin-2-yl)-1,3,4-oxadiazol-2-yl)methyl)benzamide], the IC50 is reported as 500 to 1000 nM.
`CN(C)Cc1nnc([C@@H]2CCCN2C(=O)C(F)(F)C2(O)CC(C)(C)CC(C)(C)C2)o1` [Compound 39, (S)-1-(2-(5-((Dimethylamino)methyl)-1,3,4-oxadiazol-2-yl)pyrrolidin-1-yl)-2,2-difluoro-2-(1-hydroxy-3,3,5,5-tetramethylcyclohexyl)ethanone] was tested, and the IC50 was 500 to 1000 nM.
